Drawing on patent publication US7132438B2, “Benzimidazole derivatives” (priority 2001, dated 2006), this text covers IC50 for 17 molecules.

In experiment [1] the target is T1, IRAK-1 (Homo sapiens, UniProt P51617).
T1 construct: Recombinant, full-length IRAK-1 or IRAK-4 enzyme (baculovirus expression system) was added; Flag (N); made in house
Nature of the experiment: Enzymatic inhibition assay, IRAK-1 kinase activity (chemiluminescent ELISA). The experiment is classed as biochemical. The protocol: Enzymatic inhibition assay.
(§1) 96-well polystyrene microtiter plates were coated with neutravidin for IRAK-1 or streptavidin for IRAK-4 ([…] in PBS, overnight at 4° C.). The coating solution was removed and in 80 μL/well a kinase reaction mixture was added (for IRAK-1: 20 mM Tris-HCl, pH 7.5, 10 mM MgCl2, 2 mM EGTA, 1 mM NaF, 0.5 mM benzamidine, 1 mM DTT, 3 μM ATP, […] of biotinylated substrate peptide bio-[…], sequence derived from IRAK-1; for IRAK-4: 20 mM Tris-HCl, pH 7.5, 10 mM MgCl2, 2 mM EGTA, 1 mM NaF, 0.5 mM benzamidine, 1 mM DTT, 10% glycerol, 10 μM ATP, […] of biotinylated substrate peptide bio-[…], sequence derived from GFAP).
(§2) At 10 μL/well in DMSO test compounds were added covering a final concentration range from 1 nM to […]. Recombinant, full-length IRAK-1 or IRAK-4 enzyme (baculovirus expression system) was added in 10 μL buffer containing Tris-HCl pH 7.5 20 mM, EGTA 2 mM, benzamidine 0.5 mM, DTT 1 mM, MgCl2 10 mM and glycerol 10% (IRAK-4 only) to initiate the kinase reaction. The reaction mixture was incubated at room temperature for 60 min on a shaker. During this incubation the substrate peptide is being phosphorylated by the kinase and gets captured onto the surface of the wells by neutravidin or streptavidin, respectively. The plate was washed 3× with 150 μL distilled water to terminate the reaction and remove components of the reaction mixture. A conventional chemiluminescent ELISA detection technique was initiated by adding 100 μL/well primary antibody (monoclonal antibody YC10, generated to recognize the phosphorylated epitope in the substrate peptide; used at 1:20,000 dilution for IRAK-1 and 1:10,000 dilution for IRAK-4) premixed with horseradish peroxidase (HRP) conjugated anti-mouse secondary antibody (commercially available from several sources; used at 1:10,000 dilution) in PBS containing 2% BSA. The solution was incubated at room temperature for 40 min on a shaker, then washed 3× with 150 μL of water. 100 μL/well 10× diluted SuperSignal HRP substrate (from Pierce) was added and after 5 min incubation the chemiluminescent signal was captured by a Labsystems LuminoSkan luminometer.

In experiment [2] the target is T2, IRAK-4 (Homo sapiens, UniProt Q9NWZ3).
T2 construct: Recombinant, full-length IRAK-1 or IRAK-4 enzyme (baculovirus expression system) was added; His (N); made in house
T2 sequence (Q9NWZ3 1-460): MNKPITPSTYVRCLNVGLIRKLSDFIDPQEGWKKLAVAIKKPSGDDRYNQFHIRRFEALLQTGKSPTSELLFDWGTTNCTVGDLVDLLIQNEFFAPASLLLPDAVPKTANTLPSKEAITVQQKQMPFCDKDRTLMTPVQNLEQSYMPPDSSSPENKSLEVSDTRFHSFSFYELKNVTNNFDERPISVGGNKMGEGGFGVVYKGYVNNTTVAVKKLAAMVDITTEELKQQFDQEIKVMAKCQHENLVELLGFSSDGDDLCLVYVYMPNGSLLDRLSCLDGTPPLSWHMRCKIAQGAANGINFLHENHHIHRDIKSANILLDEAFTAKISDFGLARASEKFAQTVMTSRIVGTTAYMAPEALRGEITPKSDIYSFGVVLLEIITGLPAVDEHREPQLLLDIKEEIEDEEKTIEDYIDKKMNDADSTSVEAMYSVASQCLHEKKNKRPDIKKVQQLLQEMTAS
Nature of the experiment: Enzymatic inhibition assay, IRAK-4 kinase activity (chemiluminescent ELISA). The format is biochemical. The protocol:
Enzymatic inhibition assay. This example provides a method that is useful for evaluating test compounds for inhibition of IRAK-1 or IRAK-4 kinase activity.
as §1
as §2, with “luminometer. The point of 50% inhibition of IRAK-1 or IRAK-4 enzyme activity (IC50) was determined (see Table 1).” for “luminometer.”

The mark [3] stands for this setting: recombinant full-length IRAK-1, 3 μM ATP, 60 min room temperature, read-out: IC50 values (μM) IRAK-1.
[4] abbreviates: recombinant full-length IRAK-4, 10 μM ATP, 60 min room temperature, read-out: IC50 values (μM) IRAK-4.

SMILES strings stand for the structures. Read-outs that look alike come from different tables or passages of the source. Where only a bound is given, the exact number is not on record here.

Usually IC50 stands for the concentration that gives 50% inhibition.

T1 sequence (P51617 whole entry): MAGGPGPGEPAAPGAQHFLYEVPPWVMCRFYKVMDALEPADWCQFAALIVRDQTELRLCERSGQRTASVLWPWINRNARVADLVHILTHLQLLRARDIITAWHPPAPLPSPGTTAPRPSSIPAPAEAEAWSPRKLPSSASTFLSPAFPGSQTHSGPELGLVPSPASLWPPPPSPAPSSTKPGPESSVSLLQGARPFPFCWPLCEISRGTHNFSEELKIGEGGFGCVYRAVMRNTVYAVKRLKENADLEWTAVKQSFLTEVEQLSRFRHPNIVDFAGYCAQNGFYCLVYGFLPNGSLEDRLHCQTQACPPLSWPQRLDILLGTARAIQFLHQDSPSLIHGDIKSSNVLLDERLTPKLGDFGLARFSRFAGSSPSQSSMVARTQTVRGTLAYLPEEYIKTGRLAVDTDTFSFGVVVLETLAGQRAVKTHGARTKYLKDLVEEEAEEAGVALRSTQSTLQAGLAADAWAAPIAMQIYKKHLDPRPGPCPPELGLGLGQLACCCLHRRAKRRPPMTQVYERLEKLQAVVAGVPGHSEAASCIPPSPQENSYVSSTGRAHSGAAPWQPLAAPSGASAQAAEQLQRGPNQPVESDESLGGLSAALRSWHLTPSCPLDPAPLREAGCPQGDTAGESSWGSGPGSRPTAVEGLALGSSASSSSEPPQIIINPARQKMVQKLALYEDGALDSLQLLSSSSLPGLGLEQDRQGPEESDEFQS

With `O=C(Nc1nc2ccccc2[nH]1)c1cccc([N+](=O)[O-])c1` [Compound 1, 3-nitro-N-(1H-benzoimidazol-2-yl)-benzamide], the half-inhibitory concentration (IC50) in experiment [1] (setting [3]) and in experiment [2] was below 10 µM each time.

Take `O=C(Nc1nc2cc(F)c(F)cc2n1CCN1CCOCC1)c1cccc([N+](=O)[O-])c1` [Compound 4, 3-nitro-N-(1-(2-morpholin-4-yl-ethyl)-5,6-difluoro-1H-benzoimidazol-2-yl)-benzamide]: the IC50 in experiment [1] and in experiment [2] (setting [4]) was below 10 µM each time. As to `CCOC(=O)Cn1c(NC(=O)c2cccc([N+](=O)[O-])c2)nc2cc(F)c(F)cc21` [Compound 6, 3-nitro-N-(1-(ethylacet-2-yl)-5,6-difluoro-1H-benzoimidazol-2-yl)-benzamide], the IC50 in experiment [1] is 10 to 30 µM; in experiment [2] (setting [4]), below 10 µM. On to `CS(=O)(=O)c1cccc(C(=O)Nc2nc3ccccc3n2CCN2CCOCC2)c1` [Compound 12, 3-methanesulfonyl-N-(1-(2-morpholin-4-yl-ethyl)-1H-benzoimidazol-2-yl)-benzamide], for which the IC50 in experiment [1] and in experiment [2] (setting [4]) was below 10 µM throughout. Take `COC(=O)c1ccc2c(c1)nc(NC(=O)c1cccc([N+](=O)[O-])c1)n2CCO` [Compound 7a, 3-nitro-N-(1-hydroxyethyl-5-carboxymethyl-1H-benzoimidazol-2-yl)-benzamide]: the IC50 in experiment [1] and in experiment [2] (setting [4]) was below 10 µM in each case. `O=C(Nc1nc2ccccc2n1CCO)c1ccc(Cl)c(Cl)c1` [Compound 10, 3,4-dichloro-N-(1-hydroxyethyl-1H-benzoimidazol-2-yl)-benzamide]: the IC50 in experiment [1] was 10 to 30 µM; in experiment [2] (setting [4]), below 10 µM. For the molecule `COC(=O)c1cccc(C(=O)Nc2nc3ccccc3n2CCN2CCOCC2)c1` [Compound 11, 3-carboxymethyl-N-(1-(2-morpholin-4-yl-ethyl)-1H-benzoimidazol-2-yl)-benzamide], the IC50 in experiment [1] and in experiment [2] (setting [4]) was below 10 µM in each case. In the case of `CC(C)(C)C(=O)Oc1ccc2c(c1)nc(NC(=O)c1cccc([N+](=O)[O-])c1)n2CCCO` [Compound 15a, 3-nitro-N-(1-hydroxypropyl-5-(2′,2′-dimethylpropionyl)-1H-benzoimidazol-2-yl)-benzamide], the IC50 in experiment [2] is below 10 µM. Take `CCn1c(NC(=O)c2ccc(OC)cc2)nc2ccccc21` [Compound 8, 4-methoxy-N-(1-ethyl-1H-benzoimidazol-2-yl)-benzamide]: the IC50 in experiment [1] and in experiment [2] (setting [4]) was 10 to 30 µM each time. With `O=C(Nc1nc2ccccc2n1CCN1CCOCC1)c1ccc([N+](=O)[O-])o1` [Compound 13, 5-nitro-N-(1-(2-morpholin-4-yl-ethyl)-1H-benzoimidazol-2-yl)-2-furamide], the IC50 in experiment [1] and in experiment [2] (setting [4]) was below 10 µM throughout. As to `O=C(Nc1nc2cc(F)ccc2n1[C@H]1CC[C@H](O)CC1)c1cccc([N+](=O)[O-])c1` [Compound 16, 3-nitro-N-(1-(trans-4-cyclohexanol-1-yl)-5-fluoro-1H-benzoimidazol-2-yl)-benzamide], the IC50 in experiment [1] (setting [3]) and in experiment [2] (setting [4]) was below 10 µM each time. `O=C(Nc1nc2ccccc2n1CCN1CCOCC1)c1cccs1` [Compound 14, N-(1-(2-morpholin-4-yl-ethyl)-1H-benzoimidazol-2-yl)-2-thiophenecarboxamide]: the IC50 in experiment [1] and in experiment [2] (setting [4]) was 10 to 30 µM in each case. For the molecule `O=C(Nc1nc2ccccc2n1CCN1CCOCC1)c1cccc([N+](=O)[O-])c1` [Compound 3, 3-nitro-N-(1-(2-morpholin-4-yl-ethyl)-1H-benzoimidazol-2-yl)-benzamide], the IC50 in experiment [1] (setting [3]) and in experiment [2] was below 10 µM throughout. For `COC(=O)CCCn1c(NC(=O)c2cccc([N+](=O)[O-])c2)nc2ccccc21` [Compound 5, 3-nitro-N-(1-(3-carboxymethylpropyl)-1H-benzoimidazol-2-yl)-benzamide], the IC50 in experiment [1] and in experiment [2] (setting [4]) was below 10 µM in each case.

As for `Cc1cc2nc(NC(=O)c3cccc([N+](=O)[O-])c3)[nH]c2cc1C` [Compound 2, 3-nitro-N-(5,6-dimethyl-1H-benzoimidazol-2-yl)-benzamide], the results for the IC50 in experiment [1] (setting [3]) and in experiment [2] were 10 to 30 µM and below 10 µM, respectively. For the molecule `O=[N+]([O-])c1cccc(CNc2nc3ccccc3[nH]2)c1` [Compound 17], the IC50 in experiment [1] (setting [3]) and in experiment [2] (setting [4]) was 10 to 30 µM each time. Take `O=C(Nc1nc2ccccc2n1CCO)c1cccc(Cl)c1` [Compound 9, 3-chloro-N-(1-hydroxyethyl-1H-benzoimidazol-2-yl)-benzamide]: the IC50 in experiment [1] and in experiment [2] (setting [4]) was below 10 µM in each case.
